Laboratory results reported in patent US11597762B2, “Treatment of a disease of the gastrointestinal tract with an IL-12/IL-23 inhibitor released using an ingestible device” (BIORA THERAPEUTICS, INC., priority 2016, dated 2023).

Test: Tacrolimus tissue pharmacokinetics, oral vs intra-cecal ingestible device, in Yorkshire-Cross farm swine
Format: in vivo
Settings: intra-cecal compared to oral, 12 hours post-dose, FIG. 76
Method: No further randomization procedure was employed.
Animals in Group 1 received an ingestible device containing 0.8 mL of vehicle solution (80% alcohol, 20% HCO-60). Animals in Group 2 received orally […] liquid formulation of tacrolimus at 4 mg/0.8 mL per animal (Prograf: 5 mg/mL). Animals in Group 3 received intra-cecally an ingestible device containing tacrolimus at 1 mg in 0.8 mL per ingestible device. Animals in Group 4 received intra-cecally an ingestible device containing tacrolimus at 2 mg in 0.8 mL per ingestible device. Animals in Group 5 received intra-cecally an ingestible device containing tacrolimus at 4 mg in 0.8 mL per ingestible device. […]
Approximately 200˜400 mg of rectal content were collected, if available, with a fecal swab (Copan Diagnostics Nylon Flocked Dry Swabs, 502CS01). The fecal swab was pre-weighed and weighed after collection in the collection tube (Sterile Tube and Cap No Media, PFPM913S), and the sample weight was recorded. […]
For tissue necropsy, small intestine fluid and cecal fluid were collected separately from all the animals into two separate square plastic bottles, and stored at −20° C. The length and diameter of the cecum and the colon was measured from one animal in each group and recorded for reference. […] All samples were weighed, and the tissue sample weights were recorded. […]

- mean concentration of tacrolimus in the cecum tissue: higher
- mean concentration of tacrolimus in the proximate colon tissue: higher
SMILES: C=CC[C@@H]1/C=C(\C)C[C@H](C)C[C@H](OC)[C@H]2O[C@@](O)(C(=O)C(=O)N3CCCC[C@H]3C(=O)O[C@H](/C(C)=C/[C@@H]3CC[C@@H](O)[C@H](OC)C3)[C@H](C)[C@@H](O)CC1=O)[C@H](C)C[C@@H]2OC [tacrolimus]
